We go through eight compounds from patent publication US20050032873A1, “3-Amino chroman and 2-amino tetralin derivatives” (Wyeth, priority 2003, published 2005).

pEC50, pIC50, pKi: −log10 of the molar value. Where two headings read alike, the source gives them in different places.

In one assay the target is T1, serotonin transporter (Rattus norvegicus, UniProt P31652).
T1 construct: displace ^3H-paroxetine from male rat cortical membranes; from tissue; host or cells: male rat cortical membranes
T1 sequence (P31652 whole entry): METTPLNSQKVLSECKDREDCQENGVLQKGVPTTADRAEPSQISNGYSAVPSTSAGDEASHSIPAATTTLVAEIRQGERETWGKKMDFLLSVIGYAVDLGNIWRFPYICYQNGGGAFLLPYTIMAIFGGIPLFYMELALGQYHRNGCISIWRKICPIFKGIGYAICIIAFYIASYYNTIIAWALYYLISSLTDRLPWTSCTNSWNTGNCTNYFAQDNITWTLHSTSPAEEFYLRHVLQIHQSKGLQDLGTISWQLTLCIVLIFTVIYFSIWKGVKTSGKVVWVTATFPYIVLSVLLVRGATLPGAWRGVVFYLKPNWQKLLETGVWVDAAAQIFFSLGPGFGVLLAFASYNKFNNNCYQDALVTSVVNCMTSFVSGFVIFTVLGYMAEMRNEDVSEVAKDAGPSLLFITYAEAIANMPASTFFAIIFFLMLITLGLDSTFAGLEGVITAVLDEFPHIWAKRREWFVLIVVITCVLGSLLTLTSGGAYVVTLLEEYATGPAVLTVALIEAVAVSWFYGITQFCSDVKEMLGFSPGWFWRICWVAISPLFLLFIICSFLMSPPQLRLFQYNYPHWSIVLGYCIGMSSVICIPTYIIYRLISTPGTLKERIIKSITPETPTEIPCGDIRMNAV
Description: 5-HT transporter affinity: displacement of 3H-paroxetine from male rat cortical membranes. Format: binding. Conditions: displacement of 3H-paroxetine; male rat cortical membranes; read-out: 5-HT Transporter Affinity Ki. Background: In a radioligand displacement assay an active substance lowers the binding of a labelled ligand.

Assay [1] has as its target T2, 5-HT1A receptor (Homo sapiens, UniProt P08908).
T2 sequence (P08908 1-422): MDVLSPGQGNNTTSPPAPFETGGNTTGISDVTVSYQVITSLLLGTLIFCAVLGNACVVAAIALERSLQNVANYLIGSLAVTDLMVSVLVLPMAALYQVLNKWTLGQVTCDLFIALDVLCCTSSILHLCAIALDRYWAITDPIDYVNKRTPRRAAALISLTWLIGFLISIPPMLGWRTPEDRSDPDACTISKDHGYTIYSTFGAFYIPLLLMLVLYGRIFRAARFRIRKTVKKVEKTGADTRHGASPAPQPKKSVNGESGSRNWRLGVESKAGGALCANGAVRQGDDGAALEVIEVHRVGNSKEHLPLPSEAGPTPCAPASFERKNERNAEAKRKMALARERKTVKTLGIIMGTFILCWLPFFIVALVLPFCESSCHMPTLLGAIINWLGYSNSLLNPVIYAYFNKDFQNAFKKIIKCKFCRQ
Description: 5-HT1A receptor affinity: displacement of [3H] 8-OH-DPAT. Also on record: expressed in transfected cells. Conditions: displacement of [3H] 8-OH-DPAT; CHO cells stably transfected with human 5-HT1A receptors; read-out: 5-HT1A Receptor Affinity Ki. Format: binding.

Assay [2] addresses T3, cloned human 5-HT1A receptors (Homo sapiens, UniProt P08908).
T3 construct: expressed in transfected cells
T3 sequence (P08908 1-422): T2 sequence (P08908 1-422)
The assay is described as follows: 35S-GTPγS binding assay, 5-HT1A function. Format: biochemical. Conditions: for pIC50: antagonist potency, reversal of 8-OH-DPAT, read-out: 5-HT1A Function GTPγS IC50; for pEC50: agonist potency. In general terms: GTPγS is a poorly hydrolysed GTP analogue; its binding reports G protein activation.

The target of assay [3] is T2, 5-HT1A receptor. The assay is described as follows: cAMP accumulation assay, 5-HT1A function. Conditions: for pEC50: cells marked EC50 (agonist); for Emax: in brackets after EC50 or IC50, read-out: 5-HT1A Function cAMP (Emax). The assay is classed as cell-based. In general terms: cAMP levels reflect the balance of adenylyl cyclase and phosphodiesterase activity.
Description: The agonist or antagonist activity at 5-HT1A receptors was established by using two different assays. […] Agonists produce an increase in binding whereas antagonists produce no increase but rather reverse the effects of the standard agonist 8-OH-DPAT. The test compound's maximum stimulatory effect is represented as the Emax, while its potency is defined by the EC50. The test compound's maximum inhibitory effect is represented as the Imax, while its potency is defined by the IC50. The second assay measured cAMP accumulation upon binding of the ligand to the 5-HT1A receptor. […] The test compound's maximum stimulatory or inhibitory effect is represented as the Emax while its potency is defined by either IC50 for an antagonist or EC50 for an agonist. [^3H]-8-OH-DPAT was used to determine maximum agonist or antagonist response in both functional assays.
Setting [4] is: maximum inhibitory effect, in brackets after IC50, read-out: 5-HT1A Function GTPγS (Imax).
Setting [5] is: maximum stimulatory effect, in brackets after EC50, read-out: 5-HT1A Function GTPγS (Emax).

As usually defined, the pKi is −log10 of the Ki, conventionally taken in molar units. For orientation: pIC50 means −log10 of the IC50, conventionally taken in molar units. Usually pEC50 stands for the negative decadic logarithm of the EC50, by convention in mol/L. Lower therefore signals a high EC50. Regarding `COc1cccc2c1CC(N(CCCc1c[nH]c3ccc(F)cc13)C1CCC1)CO2` (centres unmarked) [Compound 34, N-cyclobutyl-N-[3-(5-fluoro-1H-indol-3-yl)propyl]-5-methoxychroman-3-amine], the pKi on serotonin transporter is 7.89; on 5-HT1A receptor [1], 7.81. In addition, the pIC50 in assay [2] is 5.67. Moreover, the Emax turned out to be 76% in assay [2] (setting [4]) and 37% on 5-HT1A receptor [3]. This compound also showed a pEC50 at 5-HT1A receptor [3] of 7.21.
As for `COc1cccc2c1C[C@@H](N(CCCc1c[nH]c3ccc(F)cc13)C1CCC1)CO2` [Compound 35, (3R)-N-cyclobutyl-N-[3-(5-fluoro-1H-indol-3-yl)propyl]-5-methoxy-3,4-dihydro-2H-chromen-3-amine], the pKi at serotonin transporter was 7.39; at 5-HT1A receptor [1], 8.67. In addition, the pIC50 was 6.31 in assay [2] and 7.63 at 5-HT1A receptor [3] (cells marked IC50 (antagonist), read-out: 5-HT1A Function cAMP IC50). The Emax in assay [2] (setting [4]) came to 80%; at 5-HT1A receptor [3] it was 0%.
Regarding `COc1cccc2c1CC(N(CCCc1c[nH]c3ccc(F)cc13)CC1CC1)CO2` (centres unmarked) [Compound 37, N-(cyclopropylmethyl)-N-[3-(5-fluoro-1H-indol-3-yl)propyl]-N-(5-methoxy-3,4-dihydro-2H-chromen-3-yl)amine], the figures for the pKi on serotonin transporter and on 5-HT1A receptor [1] were 8.37 and 8.77, respectively. Further, the pEC50 in assay [2] is 6.84; on 5-HT1A receptor [3] it was 7.85. The Emax stood at 88% in assay [2] (setting [5]) and 91% on 5-HT1A receptor [3].
Regarding `COc1cccc2c1CC(N(CCCc1cn(C)c3ccc(F)cc13)CC1CC1)CO2` (centres unmarked) [Compound 38, N-(cyclopropylmethyl)-N-[3-(5-fluoro-1-methyl-1H-indol-3-yl)propyl]-N-(5-methoxy-3,4-dihydro-2H-chromen-3-yl)amine], the pKi on serotonin transporter is 7.54; at 5-HT1A receptor [1], 9.82. Moreover, the negative-log EC50 (pEC50) in assay [2] was 7.59; at 5-HT1A receptor [3] it was 8.05. The Emax in assay [2] (setting [5]) came out at 90%; at 5-HT1A receptor [3], 97.5%.
Regarding `COc1cccc2c1CC(N(CCCc1c[nH]c3ccc(F)cc13)C1CCCC1)CO2` (centres unmarked) [Compound 39, N-cyclopentyl-N-[3-(5-fluoro-1H-indol-3-yl)propyl]-N-(5-methoxy-3,4-dihydro-2H-chromen-3-yl)amine], the pKi is 7.16 at serotonin transporter and 7.44 at 5-HT1A receptor [1]. Also, the pEC50 was 5.23 in assay [2] and 6.97 on 5-HT1A receptor [3]. Also, the Emax in assay [2] (setting [5]) came out at 100%; at 5-HT1A receptor [3] it was 70.5%.
`COc1cccc2c1CC(N(CCCc1c[nH]c3ccc(F)cc13)C(C)C)CO2` (centres unmarked) [Compound 40, N-[3-(5-fluoro-1H-indol-3-yl)propyl]-N-isopropyl-N-(5-methoxy-3,4-dihydro-2H-chromen-3-yl)amine]: the pKi on serotonin transporter is 8.42; at 5-HT1A receptor [1] it was 7.09. Further, the pIC50 in assay [2] is 5.42. Besides, the Emax in assay [2] (setting [4]) was determined as 46%; at 5-HT1A receptor [3], 0%.
Consider `COc1cccc2c1CC(N(CCCc1c[nH]c3ccc(F)cc13)C1CC1)CO2` (centres unmarked) [Compound 41, N-cyclopropyl-N-[3-(5-fluoro-1H-indol-3-yl)propyl]-N-(5-methoxy-3,4-dihydro-2H-chromen-3-yl)amine], for which the results for the pKi on serotonin transporter and at 5-HT1A receptor [1] were 6.83 and 7.24, respectively. Besides, the values for the pEC50 (in assay [2]; on 5-HT1A receptor [3]) were 5.46 and 6.79, respectively. In addition, the Emax was 84% in assay [2] (setting [5]) and 78.5% on 5-HT1A receptor [3].
`COc1cccc2c1CC(N(CCCc1c[nH]c3ccc(F)cc13)CC1CCC1)CO2` (centres unmarked) [Compound 42, N-(cyclobutylmethyl)-N-[3-(5-fluoro-1H-indol-3-yl)propyl]-N-(5-methoxy-3,4-dihydro-2H-chromen-3-yl)amine]: the values for the pKi on serotonin transporter and at 5-HT1A receptor [1] were 7.27 and 7.30, respectively. The figures for the pEC50 (in assay [2]; on 5-HT1A receptor [3]) were 6.12 and 6.81, respectively. Besides, the Emax was 84% in assay [2] (setting [5]) and 72.5% at 5-HT1A receptor [3].
